Measured values published in US12187758B2 (ROME Therapeutics, Inc., priority 2022, dated 2025).
pIC50: −log10 of the molar value.

How the values were obtained:
Type in all cases: cell-based
[1] = test system: PC3 cells; assay: Mitochondria toxicity assay with PC3 cells, cytotoxicity (Cell Titer Glo); conditions: Homo sapiens, PC-3, 120 h, 5 days treatment
Procedure, shortened: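 PC3 cells in F-12K with 10% FBS exposed to a compound dose titration for 5 days at 37° C, 5% CO2. Viability by Cell Titer Glo luminescence after 30 min at room temperature; values binned A (<1.0 μM) to E (>100.0 μM).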

[2] = test system: phosphorylated TANK-binding kinase 1 (pTBK1); assay: UVB-induced pTBK1 in HaCaT cells; conditions: for pIC50: Homo sapiens, light or radiation study, pTBK1 response curves, 72 hours compound treatment, UVB
Protocol: pTBK1 is an important signaling molecule in regulating inflammatory responses. HaCaT cells were plated in 6-well plates at a density of ˜100 k/well in HaCaT media (DMEM, optimized 1× (Addex Bio)+ 1% pen strep (Gibco)^+ 5% heat inactivated fetal bovine serum (Gibco)). The cells were then cultured at 37° C. overnight. The next day, the cells were treated with the test compounds. Each test compound was diluted and added to media aliquots to provide desired concentrations. To add the test compound+media mixture, an equivalent amount of media from each well was aspirated and then replenished with the media dosed with the test compound. The cells were then cultured for an additional 72 hours with compound treatment prior to UVB exposure.
The media was then aspirated from the wells, with the remaining cells at least 80% confluent in each well. One mL of PBS was then added to each well, and the plate was then placed under a UVB lamp. A UVB sensor was positioned near the plate to register the plate's exposure. The cells were exposed to the UVB light until they reached 0.1 mJ/cm2. Then the plate was covered and transferred to a sterile hood for processing.
The PBS was aspirated out of the wells, and the wells were replenished with 3 mL fresh culture media. The cells were then cultured for an additional 24 hours, and samples were processed 24 hours post-UVB exposure. To process the samples, the media was aspirated, the plate placed on ice, and the cells washed with cold PBS, which was then aspirated off. Another 1 mL of cold PBS was added to each well. The cells were then scraped in the cold PBS solution and transferred to conical tubes on ice. The cells were then spun at ≥1000 RCF at 4° C. for 5 minutes. The cells were then resuspended in 1 mL of cold PBS and transferred to a microcentrifuge tube. The cells were spun at ≥1000 RCF at 4° C. for another 5 minutes, and the PBS was aspirated off. The cell pellet was prepared for lysis.
A RIPA lysis buffer (#BP-115, Boston BioProducts) was added to a Halt protease and […] inhibitor cocktail (#78440, ThermoFisher), and the mixture was cooled on ice. About 30 μL of the lysis buffer mix was added to the cells. The samples were briefly vortexed and then incubated on ice for at least 15 minutes. The cells were then spun≥1000 RCF at 4° C. for 5 minutes and the supernatant was transferred to a clean tube. The protein concentration of the cell lysate was measured using Pierce™ Rapid Gold BCA Protein Assay Kit #AF3225 (ThermoFisher). ELISA analysis was run on select samples using one of the following kits: • a. FastScan™ Phospho-TBK1/NAK (Ser172) ELISA Kit #46948 (Cell Signaling Technologies) • b. FastScan™ Total TBK1/NAK ELISA Kit #15816 (Cell Signaling Technologies) • c. FastScan™ Phospho-STING (Ser366) ELISA Kit #82083 (Cell Signaling Technologies) • d. FastScan™ Phospho-IRF-3 (Ser396) ELISA Kit #50386 (Cell Signaling Technologies) • e. FastScan™ Total IRF-3 ELISA Kit #29771 (Cell Signaling Technologies) • f. Phospho-NAK/TBK1 (S172) ELISA Kit (ab279952) (Abcam) • g. Phospho-IRF3 (S386) ELISA Kit (ab279833) (Abcam) Part II—Results
In the table “A” represents values≤0.50 μM; “B” represents values from >0.50 μM to ≤2.0 μM; “C” represents values from >2.0 μM to ≤5.0 μM; “D” represents values from >5.0 μM to ≤10 μM; and “E” represents values>10 μM.

[3] = test system: SDH-A (succinate dehydrogenase-A); assay: Mitochondria toxicity assay with PC3 cells, in-cell ELISA SDH-A; conditions: 5 days treatment
Procedure, shortened: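 This in-cell ELISA was run on fixed, permeabilized PC3 cells after 5-day exposure to titrated compound, with cytotoxicity measured on a duplicate plate. Results are reported as categories A (<1.0 μM) to E (>100.0 μM).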

| Compound | pIC50 [1] | pIC50 [2] | pIC50 [3] | cytotoxicity at concentrations [2] [µM] |
| --- | --- | --- | --- | --- |
| Nc1ccn([C@H]2C[C@H](O)[C@](CO)(CCl)O2)c(=O)n1 [Compound 2, 4-amino-1-((2R,4S,5R)-5-(chloromethyl)-4-hydroxy-5-(hydroxymethyl)tetrahydrofuran-2-yl)pyrimidin-2(1H)-one] | < 4.00 | ≥ 6.30 | < 4.00 | – |
| C[C@@H]1[C@H](n2ccc(N)nc2=O)O[C@@](CO)(CCl)[C@H]1O [Compound 12, 4-amino-1-((2R,3S,4S,5R)-5-(chloromethyl)-4-hydroxy-5-(hydroxymethyl)-3-methyltetrahydrofuran-2-yl)pyrimidin-2(1H)-one] | < 4.00 | < 5.00 | < 4.00 | – |
| CO[C@@H]1[C@H](n2ccc(N)nc2=O)O[C@@](CO)(CCl)[C@H]1O [Compound 13, 4-amino-1-((2R,3S,4S,5R)-5-(chloromethyl)-4-hydroxy-5-(hydroxymethyl)-3-methoxytetrahydrofuran-2-yl)pyrimidin-2(1H)-one] | < 4.00 | < 5.00 | < 4.00 | – |
| Nc1nc(=O)n([C@H]2C[C@H](O)[C@](CO)(CCl)O2)cc1F [Compound 14, 4-amino-1-((2R,4S,5R)-5-(chloromethyl)-4-hydroxy-5-(hydroxymethyl)tetrahydrofuran-2-yl)-5-fluoropyrimidin-2(1H)-one] | < 4.00 | 5.70 to 6.30 | < 4.00 | ≥ 30 |
| Nc1ncnc2c1ncn2[C@H]1C[C@H](O)[C@](CO)(CCl)O1 [Compound 15, (2R,3S,5R)-5-(6-amino-9H-purin-9-yl)-2-(chloromethyl)-2-(hydroxymethyl)tetrahydrofuran-3-ol] | < 4.00 | < 5.00 | < 4.00 | – |
| Nc1ccn([C@H]2C[C@H](O)[C@](CO)(C3CC3)O2)c(=O)n1 [Compound 16, 4-amino-1-((2R,4S,5R)-5-cyclopropyl-4-hydroxy-5-(hydroxymethyl)tetrahydrofuran-2-yl)pyrimidin-2(1H)-one] | < 4.00 | < 5.00 | < 4.00 | – |
| C[C@@H]1[C@H](n2ccc(N)nc2=O)O[C@](C)(CO)[C@H]1O [Compound 19, 4-amino-1-((2R,3S,4S,5R)-4-hydroxy-5-(hydroxymethyl)-3,5-dimethyltetrahydrofuran-2-yl)pyrimidin-2(1H)-one] | 4.00 to 4.30 | < 5.00 | 4.30 to 5.00 | – |
| C#C[C@]1(CO)O[C@@H](n2cnc3c(N)nc(Cl)nc32)C[C@@H]1O [Compound 25] | < 4.00 | – | < 4.00 | – |
| Nc1ccn([C@@H]2O[C@@](CO)(CCl)[C@@H](O)[C@@H]2F)c(=O)n1 [Compound 40, 4-amino-1-((2R,3S,4R,5R)-5-(chloromethyl)-3-fluoro-4-hydroxy-5-(hydroxymethyl)tetrahydrofuran-2-yl)pyrimidin-2(1H)-one] | < 4.00 | 5.30 to 5.70 | < 4.00 | – |
| CC[C@]1(CO)O[C@@H](n2ccc(N)nc2=O)C[C@@H]1O [Compound 44, 4-amino-1-((2R,4S,5R)-5-ethyl-4-hydroxy-5-(hydroxymethyl)tetrahydrofuran-2-yl)pyrimidin-2(1H)-one] | < 4.00 | < 5.00 | < 4.00 | – |
| CC[C@]1(CO)O[C@@H](n2ccc(N)nc2=O)[C@@H](F)[C@@H]1O [Compound 51, 4-amino-1-((2R,3S,4R,5R)-5-ethyl-3-fluoro-4-hydroxy-5-(hydroxymethyl)tetrahydrofuran-2-yl)pyrimidin-2(1H)-one] | < 4.00 | < 5.00 | < 4.00 | – |
| [N-]=[N+]=N[C@]1(CO)O[C@@H](n2cc(F)c(N)nc2=O)C[C@@H]1O [Compound 61, 4-amino-1-((2R,4S,5R)-5-azido-4-hydroxy-5-(hydroxymethyl)tetrahydrofuran-2-yl)-5-fluoropyrimidin-2(1H)-one] | < 4.00 | < 5.00 | < 4.00 | – |
| Nc1nc(=O)n([C@@H]2O[C@@](CO)(CCl)[C@@H](O)[C@@H]2F)cc1F [Compound 67, 4-amino-1-[(2R,3S,4R,5R)-5-(chloromethyl)-3-fluoro-4-hydroxy-5-(hydroxymethyl)oxolan-2-yl]-5-fluoropyrimidin-2-one] | < 4.00 | 5.30 to 5.70 | < 4.00 | – |
| Nc1nc(=O)n([C@@H]2O[C@@](CO)(CF)[C@@H](O)[C@@H]2O)cc1F [Compound 72, 4-amino-5-fluoro-1-((2R,3S,4S,5R)-5-(fluoromethyl)-3,4-dihydroxy-5-(hydroxymethyl)tetrahydrofuran-2-yl)pyrimidin-2(1H)-one] | 4.00 to 4.30 | 5.00 to 5.30 | < 4.00 | – |
| Nc1nc(=O)n([C@@H]2O[C@@](CO)(CF)[C@@H](O)[C@@H]2F)cc1F [Compound 85, 4-amino-5-fluoro-1-[(2R,3S,4R,5R)-3-fluoro-5-(fluoromethyl)-4-hydroxy-5-(hydroxymethyl)oxolan-2-yl] pyrimidin-2-one] | < 4.00 | 5.00 to 5.30 | < 4.00 | – |
| Nc1nc(=O)n([C@H]2C[C@H](O)[C@](CO)(CBr)O2)cc1F [Compound 88, 4-amino-1-((2R,4S,5R)-5-(bromomethyl)-4-hydroxy-5-(hydroxymethyl)tetrahydrofuran-2-yl)-5-fluoropyrimidin-2(1H)-one] | < 4.00 | < 5.00 | < 4.00 | – |
